Laboratory results as given in publication PMC8956739, “A synthetic lipopeptide targeting top-priority multidrug-resistant Gram-negative pathogens” (Nature Communications, 2022).
“And” between values parts separate entries of the source, which are not always exact repeats. Identical values can stand only once. Residues, ends and D or L forms follow the SMILES beside them.

Legend:
[1] = test system: K. pneumoniae FADDI-KP027; format: cell-based, Klebsiella pneumoniae; conditions: polymyxin-resistant
Procedure, shortened: (§1)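 MICs came from broth microdilution in cation-adjusted Mueller–Hinton broth against clinical isolates. For surfactant binding, P. aeruginosa ATCC 27853 was additionally tested with 10% Survanta® (v/v, 2.5 mg/mL phospholipids) added to the polymyxin-containing broth.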

K. pneumoniae Kp MKP103 = format: cell-based, Klebsiella pneumoniae; conditions: polymyxin-resistant
Procedure, shortened: as §1

P. aeruginosa ATCC 27853 = assay: Neutropenic mouse bloodstream infection model; format: in vivo; conditions: single IV dose 4 mg/kg; for Log10 CFU/mL blood at 4 h, Mean / Δlog10 CFU/mL blood (mean) / Log10 CFU/mL blood at 4 h, single mouse: 4 h; for Δlog10 CFU/mL blood (mean): treated minus control, mean of replicates; for Δlog10 CFU/mL blood (mean) / Log10 CFU/mL blood at 4 h, single mouse / Delta Log10 CFU/mL blood at 4 h, single mouse: 4 mg/kg; for Delta Log10 CFU/mL blood at 4 h, single mouse: treated mouse minus mean of vehicle mice
Procedure, shortened: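 Female Swiss mice made neutropenic with cyclophosphamide (150 mg/kg day −4, 100 mg/kg day −1), infected IV with 50 µL of 4 × 10^8 CFU/mL. Lipopeptide 4 mg/kg (free base) IV at 2 h post-inoculation, n = 3. Efficacy = Δlog10 CFU/mL blood versus saline at 4 h post-dose.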

A. baumannii FADDI-AB051 = format: cell-based, Acinetobacter baumannii; conditions: carbapenem-resistant
Procedure, shortened: as §1

A. baumannii FADDI-AB161 = format: cell-based, Acinetobacter baumannii; conditions: polymyxin-resistant
Procedure, shortened: as §1

A. baumannii FADDI-AB144 = format: cell-based, Acinetobacter baumannii; conditions: polymyxin-resistant
Procedure, shortened: as §1

[2] = test system: P. aeruginosa FADDI-PA070; format: cell-based, Pseudomonas aeruginosa; conditions: polymyxin-resistant
Procedure, shortened: as §1

[3] = test system: P. aeruginosa FADDI-PA090; format: cell-based, Pseudomonas aeruginosa; conditions: polymyxin-resistant
Procedure, shortened: as §1

[4] = test system: K. pneumoniae FADDI-KP132; assay: MIC, polymyxin-resistant isolate; format: cell-based, Klebsiella pneumoniae; conditions: mcr-1 positive
Procedure: MICs were determined in cation-adjusted Mueller–Hinton broth (CaMHB) by the broth micro-dilution method against ATCC strains and clinical isolates. MICs in the presence of Survanta® were determined as described above against P. aeruginosa ATCC 27853. In the 100 μL of fresh CaMHB containing polymyxins, 10% Survanta® (v/v, 2.5 mg/mL phospholipids) was added. MICs in the presence and absence of Survanta® were compared to determine the effect of binding to lung surfactant on the antibacterial activity of polymyxins.

HK-2 cells = assay: Transcriptomic analysis (RNA-Seq) of kidney cells; format: cell-based, human; conditions: for logFC, differential gene expression for all genes / log2FC / Fold Change: HK-2 RNA-Seq; for log2FC: Fig. 5f; for Fold Change: Fig. 5e; for num.of.degs: number of differentially expressed genes per peptide, Fig. 6a
Procedure: Human Kidney-2 (HK-2) cells (CRL-2190™, American Type Culture Collection) were treated with 100 μM colistin, F287, F319, and F365 for 24 h. Previous transcriptomic data of HK-2 cells following 24 h treatment with polymyxin B[26] were also employed for comparative bioinformatic analysis. RNA extraction was conducted as described above. Raw reads were aligned to genome GRCh38.94 (Ensembl genome database, http://ftp.ensembl.org/pub/release-94/fasta/homo_sapiens/dna/) using […] and summarized by featureCounts. Differentially expressed genes were determined using limma 3.46.0, with a combination of fold change ≥ 1.5 and FDR (by Benjamini–Hochberg algorithm) adjusted P-value ≤ 0.05 (n = 3). Key regulatory genes of HK-2 were analyzed in the context of signaling network in the Signor 2.0 database. Enrichment analysis of gene differential expression in HK-2 cells was conducted using enrichR 2.1. UpSetR 1.4.0, ComplexHeatmap 2.6.2, circlize 0.4.13 and iGraph 1.2.11 were used for data visualization. Raw data were deposited in the Short Reads Archive database under accession numbers SRR15239061-SRR15239078.

A. baumannii FADDI-AB30 = assay: Neutropenic mouse thigh infection model; format: in vivo; conditions: 45mg/kg/d
Procedure: The experimental methodology for the neutropenic mouse thigh infection model was previously described in detail. Briefly, Swiss mice (female, 7-week-old, 22–28 g) were rendered neutropenic by intraperitoneal administration of cyclophosphamide 4 days (150 mg/kg) and 1 day (100 mg/kg) prior to inoculation. Thigh infection was established by the administration of a 50 µL bolus of early log-phase bacterial suspension (4 × 10^8 CFU/mL) directly into each thigh of two mice in each group (n = 4 thighs); this method is well accepted in antibiotic pharmacokinetic/ pharmacodynamic studies to minimize animal usage. Lipopeptide solutions were prepared in sterile saline. At 2 h after inoculation, mice were administered a lipopeptide or control solution via an intraperitoneal bolus injection at 15 mg/kg, three doses every 8 h. At 0 and 24 h after the administration, animals were euthanized and each thigh was collected and homogenized under sterile conditions. Homogenate was filtered and the filtrate was collected, serially diluted in sterile saline, and spread on nutrient agar plates. Agar plates were incubated at 37 °C overnight for bacterial colony counting and the bacterial load of both thighs (log10 CFU/thigh) in each mouse was calculated. In vivo efficacy was calculated as the difference of the log10 CFU/thigh values between the treated mice at 24 h and the pre-treatment (control) at 0 h (Δlog10 CFU/thigh = log10 [treated] CFU/thigh − log10 [pre-treatment] CFU/thigh).

[5] = locus chr1 629640-630683 (ENSG00000225630 by coordinates)
[6] = locus chr1 632757-633438 (ENSG00000229344 by coordinates)

Row | Compound | Log10 CFU/mL blood at 4 h, Mean (P. aeruginosa ATCC 27853) [Log10 CFU/mL blood] | Δlog10 CFU/mL blood (mean) (P. aeruginosa ATCC 27853) [log10 CFU/mL blood] | Log10 CFU/mL blood at 4 h, single mouse (P. aeruginosa ATCC 27853) | Delta Log10 CFU/mL blood at 4 h, single mouse (P. aeruginosa ATCC 27853) | logFC, differential gene expression for all genes (HK-2 cells; Geneid ENSG00000223972) | logFC, differential gene expression for all genes (HK-2 cells; Geneid ENSG00000227232) | logFC, differential gene expression for all genes (HK-2 cells; Geneid ENSG00000233750) | logFC, differential gene expression for all genes (HK-2 cells; Geneid ENSG00000278267) | log2FC (HK-2 cells; gene ENSG00000017483 SLC38A5) | log2FC (HK-2 cells; gene ENSG00000023445 BIRC3) | log2FC (HK-2 cells; gene ENSG00000056558 TRAF1) | log2FC (HK-2 cells; gene ENSG00000066468 FGFR2) | Fold Change (HK-2 cells; [5]) | Fold Change (HK-2 cells; [6]) | num.of.degs (HK-2 cells) | also measured
1 | Polymyxin B [reference compound] | 4.76 | -2.69 | 4.60 Log10 CFU/mL blood and 4.85 Log10 CFU/mL blood and 4.82 Log10 CFU/mL blood | -2.84 Log10 CFU/mL blood and -2.60 Log10 CFU/mL blood and -2.63 Log10 CFU/mL blood | 0.4637 | -0.07236 | -0.3869 | -0.4937 | 0.7953 | -0.454 | 0.6897 | -1.758 | 1.799 | 1.2 | 1576 | MIC K. pneumoniae FADDI-KP027 [1]: > 32 µg/mL; MIC K. pneumoniae Kp MKP103 (K. pneumoniae Kp MKP103): 16 µg/mL; Δlog10 CFU/mL blood (mean) (P. aeruginosa ATCC 27853; listed as PMB): −2.69 log10 CFU/mL blood; MIC A. baumannii FADDI-AB051 (A. baumannii FADDI-AB051): 0.5 µg/mL; MIC A. baumannii FADDI-AB161 (A. baumannii FADDI-AB161): 8 µg/mL; MIC A. baumannii FADDI-AB144 (A. baumannii FADDI-AB144): 16 µg/mL; MIC P. aeruginosa FADDI-PA070 [2]: > 32 µg/mL; MIC P. aeruginosa FADDI-PA090 [3]: 4 µg/mL; MIC K. pneumoniae FADDI-KP132 [4]: 8 µg/mL; Fold Change (HK-2 cells; locus chr1 631074-632616 (ENSG00000237973 by coordinates)): 1.271; diff of mean Log10 CFU/lung, Pre-treament minus treatment (A. baumannii FADDI-AB30; one way ANOVA comparison, Pre-treament - treatment): 3.14 log10 CFU/thigh; diff of mean Log10 CFU/lung, Vehicle minus treatment (A. baumannii FADDI-AB30; one way ANOVA comparison, Vehicle - treatment): 3.4475 log10 CFU/thigh; Log10 CFU/lung, Thigh 1 (A. baumannii FADDI-AB30; neutropenic mouse thigh infection, Thigh 1 (Supp Fig. 4)): 5.16 log10 CFU/thigh; Log10 CFU/lung, Thigh 2 (A. baumannii FADDI-AB30; neutropenic mouse thigh infection, Thigh 2 (Supp Fig. 4)): 5.25 log10 CFU/thigh; Log10 CFU/lung, Thigh 3 (A. baumannii FADDI-AB30; neutropenic mouse thigh infection, Thigh 3 (Supp Fig. 4)): 3.38 log10 CFU/thigh; Log10 CFU/lung, Thigh 4 (A. baumannii FADDI-AB30; neutropenic mouse thigh infection, Thigh 4 (Supp Fig. 4)): 2.23 log10 CFU/thigh
2 | Colistin [reference compound] | 5.05 | -2.39 | 5.25 Log10 CFU/mL blood and 4.89 Log10 CFU/mL blood and 5.02 Log10 CFU/mL blood | -2.19 Log10 CFU/mL blood and -2.56 Log10 CFU/mL blood and -2.42 Log10 CFU/mL blood | -0.6712 | -0.1985 | -0.899 | -0.3433 | 0.7893 | -0.6239 | 0.6268 | -1.3101 | 0.2606 | 0.2186 | 1282 | Δlog10 CFU/mL blood (mean) (P. aeruginosa ATCC 27853; listed as COL): −2.39 log10 CFU/mL blood
3 | CCCCCCCC(=O)N[C@@H](CCN)C(=O)N[C@H](C(=O)N[C@@H](CCN)C(=O)N[C@H]1CCNC(=O)[C@H]([C@@H](C)O)NC(=O)[C@H](CCN)NC(=O)[C@H](CCN)NC(=O)[C@H](CC)NC(=O)[C@@H](CC(C)C)NC(=O)[C@H](CCN)NC1=O)[C@@H](C)O [Lipopeptide F319] (HELM PEPTIDE1{[CCCCCCCC(=O)[*:2]].[Dab].T.[Dab].[Dab].[Dab].[dL].[Abu].[Dab].[Dab].T}$PEPTIDE1,PEPTIDE1,5:R3-11:R2$$$V2.0) | 4.01 | −3.44 | 3.87 Log10 CFU/mL blood and 4.06 Log10 CFU/mL blood and 4.10 Log10 CFU/mL blood | -3.57 Log10 CFU/mL blood and -3.38 Log10 CFU/mL blood and -3.35 Log10 CFU/mL blood | -0.1551 | -0.02116 | -0.4424 | 0.1872 | 0.557 | -0.6344 | 0.7378 | -1.084 | 0.3467 | 0.6059 | 763 | 
4 | CCCCCCCC(=O)N[C@@H](CCN)C(=O)N[C@H](C(=O)N[C@@H](CN)C(=O)N[C@H]1CCNC(=O)[C@H]([C@@H](C)O)NC(=O)[C@H](CCN)NC(=O)[C@H](CCN)NC(=O)[C@H](CC)NC(=O)[C@@H](CC(C)C)NC(=O)[C@H](CCN)NC1=O)[C@@H](C)O [Lipopeptide F287] (HELM PEPTIDE1{[CCCCCCCC(=O)[*:2]].[Dab].T.[NC[C@H](N[*:1])C(=O)[*:2]].[Dab].[Dab].[dL].[Abu].[Dab].[Dab].T}$PEPTIDE1,PEPTIDE1,5:R3-11:R2$$$V2.0) | 5.02 | −2.42 | 5.21 Log10 CFU/mL blood and 4.68 Log10 CFU/mL blood and 5.18 Log10 CFU/mL blood | -2.23 Log10 CFU/mL blood and -2.77 Log10 CFU/mL blood and -2.27 Log10 CFU/mL blood | -1.073 | -0.08434 | -0.6124 | 0.2137 | 0.6808 | -0.3448 | 0.757 | -1.141 | 0.9406 |  | 1076 | Fold Change (HK-2 cells; locus chr1 629062-629433 (ENSG00000225972 by coordinates)): 0.9117
